The values below come from patent US9605007B2, “2-amino-6-methyl-4,4a,5,6-tetrahydropyrano[3,4-d][1,3]thiazin-8a(8H)-yl-1,3-thiazol-4-yl amides” (Pfizer Inc., priority 2014, dated 2017).

Usually IC50 stands for the concentration that inhibits the measured activity by half. As a reminder, the efflux ratio is a quotient of directional permeabilities that is used to spot active efflux.

Bounds are passed on as bounds.

Series [1] deals with CYP2D6 (Homo sapiens (Human), UniProt P10635). The series can be described thus: General Multi-Point Cocktail DDI IC50 Assay (CYP2D6). The procedure:
General Multi-Point Cocktail DDI IC50 Assay Conditions:
The incubation volume is 0.1 mL, utilizing a 384-well plate format. […] Substrate concentrations are near Km values that had been previously determined and incubation times are selected based on determinations of reaction velocity linearity. […] Samples are directly injected on an HPLC/MS/MS system. A Biomek FX workstation is used for liquid handling and sample incubation.

Series [2] in a line: GSH Incubation Assay. The format is in vitro ADME. As to conditions: for formation of GSH adducts: following incubations; for Observed GSH adducts: glutathione (50 mM) at 37° C. in buffer for 4 hours. The procedure:
The test compound (10 μM in DMSO) was incubated with L-glutathione (50 mM, prepared in 100 mM potassium phosphate buffer) at 37° C. for 4 hours and then analyzed by HPLC-UV/MS/MS without work-up. Thermo Accela HPLC and Velos Pro Orbitrap Elite (S/N: SN05189B) operating in positive mode with a source voltage of 3.5 kV with data dependant processing. […] Product assignments were based on high resolution mass spectrometer fragmentation.

Series [3] deals with MDR1 (P-glycoprotein). The series can be described thus: Pgp Liability MDR1 Er. The format is in vitro ADME. Particulars: dog, MDCK-MDR1. The text has this: (§1) MDR1 Efflux Ratio (MDR Er) from MDR1-transfected MDCK line cell line represents the ratio of permeability, Papp BA/AB.
In series [4] the test system is BACE2/BACE1. Put plainly: BACE2/BACE1 Binding Ratio (scintillation proximity binding assays). Details: species or system human. As to conditions: ratio of IC50 from respective binding assays, pH 6.0. The method, then:
BACE2/BACE1 Binding Ratio:
The BACE1 and BACE2 binding assays measured beta-site amyloid precursor protein-cleaving enzyme (BACE) binding as a decrease in the counts of radioligand bound in a scintillation proximity assay (SPA). […] Full length human BACE1 or BACE2 over-expressed in HEK cells was prepared by Pfizer scientists. Frozen stock cell paste was reacted in 50 mM sodium acetate buffer (pH=6.0) containing 3H-(4aR,6R,8aS)-8a-(2,4-difluorophenyl)-6-(1-methyl-1H-pyrazol-4-yl)-4,4a,5,6,8,8a-hexahydropyrano[3,4-d][1,3]thiazin-2-amine ligand, SPA bead and 60 μM to 600 pM of test compound in an assay volume of 27 uL. The compound plate also contained positive (BACE inhibitor) and negative (DMSO) control wells. The binding was carried out at room temperature for 30 minutes and then the plates were read on a TriLux Microbeta reader to determine the number of counts bound.

The target of series [5] is MDR1 (P-glycoprotein) (Homo sapiens (Human), UniProt P08183). Put plainly: Pgp Liability MDR1 Er. Format: in vitro ADME. As to conditions: MDR1-transfected MDCK line, ratio of permeability Papp BA/AB.
Text: as §1

For series [6], the system named is sAPPβ in H4 human neuroglioma cells over-expressing wild-type human APP695. Put plainly: sAPPβ Whole-Cell Assay (WCA). The format is cell-based. As to conditions: 18 h. The method, then:
sAPPβ Whole-Cell Assay (WCA):
sAPPβ, the primary cleavage product of BACE1, was determined in H4 human neuroglioma cells over-expressing the wild-type human APP695. […] The colorimetric reaction was read by an EnVision (PerkinElmer) plate-reader.

Series [7] is described as follows: HLM CLint (clearance in human liver microsomes). Format: in vitro ADME. (Liver microsomes are a subcellular fraction often used to study metabolism.)
Series [8] concerns the target BACE1 (Homo sapiens (Human), UniProt P56817). Put plainly: BACE1 Cell-Free Assay (fluorescence polarization). Format: biochemical. As to conditions: geometric mean of 2-4 determinations unless otherwise indicated (b: ≧5 determinations; c: single determination); read-out: BACE 1 Cell-free Assay IC50. The text has this:
This assay measures the inhibition of the beta-secretase enzyme as it cleaves a non-native peptide.
A synthetic APP substrate that can be cleaved by beta-secretase having N-term inal biotin and made fluorescent by the covalent attachment of Oregon Green at the Cys residue is used to assay beta-secretase activity in the presence or absence of the inhibitory compounds. The substrate is Biotin-[…]-C[Oregon Green]KK-OH. The BACE1 enzyme is affinity purified material from conditioned media of CHO-K1 cells that have been transfected with a soluble BACE construct (BACE1deltaTM96His). […] Plates are covered and incubated for 3 hours at 37° C. […] The activity of the beta-secretase enzyme is detected by changes in the fluorescence polarization that occur when the substrate is cleaved by the enzyme.

MDR1 (P-glycoprotein) (Homo sapiens (Human), UniProt P08183), sequence (P08183 whole entry): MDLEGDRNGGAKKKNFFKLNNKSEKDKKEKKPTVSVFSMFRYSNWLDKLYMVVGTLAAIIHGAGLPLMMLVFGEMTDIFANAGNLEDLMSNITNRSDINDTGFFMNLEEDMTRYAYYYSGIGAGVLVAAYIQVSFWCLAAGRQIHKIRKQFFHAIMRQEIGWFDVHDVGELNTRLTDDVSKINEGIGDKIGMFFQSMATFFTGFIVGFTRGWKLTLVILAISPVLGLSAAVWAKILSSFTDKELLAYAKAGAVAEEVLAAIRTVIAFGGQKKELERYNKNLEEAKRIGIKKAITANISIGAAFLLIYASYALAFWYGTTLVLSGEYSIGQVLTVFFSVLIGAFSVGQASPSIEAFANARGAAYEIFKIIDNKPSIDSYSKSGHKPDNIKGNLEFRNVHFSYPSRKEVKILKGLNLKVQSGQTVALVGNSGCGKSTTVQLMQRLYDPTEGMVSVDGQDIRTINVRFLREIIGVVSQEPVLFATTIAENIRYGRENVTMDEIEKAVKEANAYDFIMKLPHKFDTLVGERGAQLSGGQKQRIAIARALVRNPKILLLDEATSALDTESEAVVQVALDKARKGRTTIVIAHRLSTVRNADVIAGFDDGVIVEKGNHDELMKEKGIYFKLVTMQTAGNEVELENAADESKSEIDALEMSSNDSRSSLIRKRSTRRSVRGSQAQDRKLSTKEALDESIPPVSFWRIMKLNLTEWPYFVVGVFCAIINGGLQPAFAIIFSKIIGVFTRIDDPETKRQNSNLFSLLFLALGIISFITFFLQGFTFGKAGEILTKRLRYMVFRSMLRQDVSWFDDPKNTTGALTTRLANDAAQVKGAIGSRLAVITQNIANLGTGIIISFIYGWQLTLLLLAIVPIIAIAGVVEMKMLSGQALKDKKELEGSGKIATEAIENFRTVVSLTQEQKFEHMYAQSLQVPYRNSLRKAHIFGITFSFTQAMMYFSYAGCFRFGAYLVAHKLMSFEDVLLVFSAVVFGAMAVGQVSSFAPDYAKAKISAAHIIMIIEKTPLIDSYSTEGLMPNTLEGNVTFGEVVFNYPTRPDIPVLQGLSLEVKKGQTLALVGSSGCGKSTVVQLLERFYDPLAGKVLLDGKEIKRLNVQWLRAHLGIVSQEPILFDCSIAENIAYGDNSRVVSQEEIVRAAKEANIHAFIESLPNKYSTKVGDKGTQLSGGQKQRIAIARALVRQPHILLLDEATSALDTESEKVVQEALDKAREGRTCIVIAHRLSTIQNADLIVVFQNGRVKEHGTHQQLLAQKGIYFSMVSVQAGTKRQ
CYP2D6, sequence (P10635 whole entry): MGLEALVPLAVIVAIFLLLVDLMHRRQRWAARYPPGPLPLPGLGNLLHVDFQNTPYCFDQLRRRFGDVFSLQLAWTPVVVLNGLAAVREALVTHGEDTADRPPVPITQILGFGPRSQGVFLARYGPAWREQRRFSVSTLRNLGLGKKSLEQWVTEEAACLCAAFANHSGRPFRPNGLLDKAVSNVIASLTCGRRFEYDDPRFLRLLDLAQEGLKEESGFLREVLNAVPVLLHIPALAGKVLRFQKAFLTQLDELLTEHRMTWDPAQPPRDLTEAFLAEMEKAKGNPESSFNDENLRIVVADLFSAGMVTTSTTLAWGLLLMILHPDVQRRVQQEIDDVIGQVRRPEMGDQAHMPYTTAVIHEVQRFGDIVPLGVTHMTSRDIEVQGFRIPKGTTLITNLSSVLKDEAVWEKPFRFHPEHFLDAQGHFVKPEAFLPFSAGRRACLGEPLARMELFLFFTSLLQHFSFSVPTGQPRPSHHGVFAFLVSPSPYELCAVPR
BACE1, sequence (P56817 46-457): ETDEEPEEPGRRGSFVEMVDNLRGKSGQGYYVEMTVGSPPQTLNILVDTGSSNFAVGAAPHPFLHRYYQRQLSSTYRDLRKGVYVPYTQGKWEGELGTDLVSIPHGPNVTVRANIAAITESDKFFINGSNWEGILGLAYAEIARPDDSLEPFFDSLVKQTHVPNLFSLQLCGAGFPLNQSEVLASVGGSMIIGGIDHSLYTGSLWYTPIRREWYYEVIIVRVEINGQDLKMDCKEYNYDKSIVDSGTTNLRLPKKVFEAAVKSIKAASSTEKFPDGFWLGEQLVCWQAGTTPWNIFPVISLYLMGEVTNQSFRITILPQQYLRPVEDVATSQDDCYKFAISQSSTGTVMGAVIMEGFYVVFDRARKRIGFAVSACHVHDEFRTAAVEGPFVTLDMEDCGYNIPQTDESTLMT

The compound `Cc1cc(OC(F)F)cnc1C(=O)Nc1csc([C@]23CO[C@@H](C)C[C@H]2CSC(N)=N3)n1` [Example 45, N-{2-[(4aR,6S,8aR)-2-amino-6-methyl-4,4a,5,6-tetrahydropyrano[3,4-d][1,3]thiazin-8a(8H)-yl]-1,3-thiazol-4-yl}-5-(difluoromethoxy)-3-methylpyridine-2-carboxamide] came in with an IC50 in series [1] of less than 30000 nM. In addition, in series [2], the “formation of GSH adducts” value is reported as “not detected” and the “Observed GSH adducts” value is “Negative”.
The compound `C[C@H]1C[C@H]2CSC(N)=N[C@@]2(c2nc(NC(=O)c3cnc(OC(F)F)cn3)cs2)CO1` [Example 2, N-{2-[(4aR,6S,8aR)-2-amino-6-methyl-4,4a,5,6-tetrahydropyrano[3,4-d][1,3]thiazin-8a(8H)-yl]-1,3-thiazol-4-yl}-5-(difluoromethoxy)pyrazine-2-carboxamide] displayed an IC50 in series [1] of less than 30000 nM. Also, in series [3], the efflux ratio was less than 2.5. Further, in series [2], the “formation of GSH adducts” value is recorded as “not detected” and the “Observed GSH adducts” value is recorded as “Negative”.
`C[C@H]1C[C@H]2CSC(N)=N[C@@]2(c2nc(NC(=O)c3ccc(OC(F)F)cn3)cs2)CO1` [Example 1, N-{2-[(4aR,6S,8aR)-2-amino-6-methyl-4,4a,5,6-tetrahydropyrano[3,4-d][1,3]thiazin-8a(8H)-yl]-1,3-thiazol-4-yl}-5-(difluoromethoxy)pyridine-2-carboxamide] displayed an IC50 in series [1] of less than 30000 nM. Moreover, in series [2], the “formation of GSH adducts” value is on record as “not detected” and the “Observed GSH adducts” value is “Negative”.
Regarding `NC1=N[C@@]2(c3cc(NC(=O)c4ccc(OC(F)F)cn4)ccc3F)CO[C@@H](C(F)(F)F)C[C@H]2CS1` [Comparator 6], the “BACE2/BACE1 Binding Ratio” value in series [4] was determined as 1.0. The “Pgp liability MDR1 Er” value in series [5] was found to be 3.2. Moreover, the IC50 in series [6] was less than 1 nM.
As for `C[C@H]1C[C@H]2CSC(N)=N[C@@]2(c2cc(NC(=O)c3ccc(Cl)cn3)ccc2F)CO1` [Comparator 7], in series [7], the “HLM CLint” value is recorded as 34.4 mL/min/kg. Moreover, in series [4], the “BACE2/BACE1 Binding Ratio” value is given as 1.0. The IC50 in series [6] was less than 1 nM.
As to `C[C@H]1C[C@H]2CSC(N)=N[C@@]2(c2nc(NC(=O)c3coc(CF)n3)cs2)CO1` [Example 3, N-{2-[(4aR,6S,8aR)-2-amino-6-methyl-4,4a,5,6-tetrahydropyrano[3,4-d][1,3]thiazin-8a(8H)-yl]-1,3-thiazol-4-yl}-2-(fluoromethyl)-1,3-oxazole-4-carboxamide], the IC50 in series [8] was found to be 0.7 nM.
`C[C@H]1C[C@H]2CSC(N)=N[C@@]2(c2nc(NC(=O)c3ccc(Cl)cn3)cs2)CO1` [Example 7, N-{2-[(4aR,6S,8aR)-2-amino-6-methyl-4,4a,5,6-tetrahydropyrano[3,4-d][1,3]thiazin-8a(8H)-yl]-1,3-thiazol-4-yl}-5-chloropyridine-2-carboxamide] returned an IC50 in series [1] of less than 30000 nM. For the same compound, in series [2], the “formation of GSH adducts” value is “not detected” and the “Observed GSH adducts” value is “Negative”.
As for `C[C@H]1C[C@H]2CSC(N)=N[C@@]2(c2nc(NC(=O)c3ccc(OC(F)F)cn3)cs2)CO1` [Comparator 1], the “Pgp liability MDR1 Er” value in series [5] was 7.1.
On to `C[C@H]1C[C@H]2CSC(N)=N[C@@]2(c2nc(NC(=O)c3ccc(OC(F)F)cn3)ccc2F)CO1` [Comparator 2], for which the “HLM CLint” value in series [7] worked out at 22.9 mL/min/kg.
For the compound `NC1=N[C@@]2(c3cc(NC(=O)c4ccc(OC(F)F)cn4)ccc3F)COCC[C@H]2CS1` [Comparator 4], the “HLM CLint” value in series [7] came to 8.3 mL/m in/kg mL/min/kg. For the same compound, the “Pgp liability MDR1 Er” value in series [5] is on record as 6.8. For the same compound, the IC50 in series [6] was less than 1 nM.
With `C[C@H]1C[C@H]2CSC(N)=N[C@@]2(c2nc(NC(=O)c3ccn(C(F)F)n3)cs2)CO1` [Example 4, N-{2-[(4aR,6S,8aR)-2-amino-6-methyl-4,4a,5,6-tetrahydropyrano[3,4-d][1,3]thiazin-8a(8H)-yl]-1,3-thiazol-4-yl}-1-(difluoromethyl)-1H-pyrazole-3-carboxamide], in series [8], the IC50 turned out to be 0.9 nM.
